Literature values in patent publication US20210353570A1, “Flutamide Microsphere-Based Arterial Embolization for Treating Prostate Disorders” (Biovena Science, LLC, priority 2018, published 2021).

How the values were obtained:
[1] = not given; remark: listed apart in the source

CC(C)C(=O)Nc1ccc([N+](=O)[O-])c(C(F)(F)F)c1 [Flutamide, 4′-nitro-3′-trifluoromethyl-isobutyranilide]
bioavailability (after oral administration): 49%
half-life (in vivo): 5 to 6 h
solubility [1]: low solubility
